Results reported in PubChem BioAssay (NCI).
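Five concentrations, 48 hours, 96-well plates. Abbreviation: GI50, concentration required for 50% inhibition of growth. TGI is the concentration that stops growth completely.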

Assays:
Test in all cases: NCI anticancer screen, dose series, 48 h
SF-268 CNS = test system: SF-268 CNS
SN12C renal = test system: SN12C renal
MOLT-4 leukemia = test system: MOLT-4 leukemia
SW-620 colon = test system: SW-620 colon
HCT-116 colon = test system: HCT-116 colon
HCC-2998 colon = test system: HCC-2998 colon
DU-145 prostate = test system: DU-145 prostate
RXF 393 renal = test system: RXF 393 renal

Structure (SMILES) | GI50 (SF-268 CNS) | TGI (SF-268 CNS) [µM] | GI50 (SN12C renal) | TGI (SN12C renal) [µM] | GI50 (MOLT-4 leukemia) [µM] | TGI (MOLT-4 leukemia) [µM] | GI50 (SW-620 colon) | TGI (SW-620 colon) [µM] | GI50 (HCT-116 colon) | TGI (HCT-116 colon) [µM] | GI50 (HCC-2998 colon) [µM] | TGI (HCC-2998 colon) [µM] | GI50 (DU-145 prostate) [µM] | TGI (DU-145 prostate) [µM] | TGI (RXF 393 renal) [µM] | GI50 (RXF 393 renal)
c1ccc(/C(=N\Nc2ccc3ccccc3n2)c2ccccn2)cc1 | 0.743 µM | 9.87 | 0.507 µM | 25.6 | 0.252 | 0.69 | 0.699 µM | 15.3 | 0.436 µM | 5.62 | 0.904 | 16.7 | 0.881 | 16.8 |  | 
CN(C)CC1=Nc2cccc3cccc(c23)N1 |  | 33.4 |  | 31.8 |  |  |  | > 100 |  | 30.8 |  | 32.3 |  | 30.9 | 31.9 | 
CCc1nc(N)nc(N)c1C#CC(C)c1cc(-c2ccnc(C)c2)c2oc(C)nc2c1 (configuration not stated) | < 0.01 µM | 6.02 | < 0.0145 µM | 11.4 | < 0.01 | 8.81 | < 0.01 µM | 13.2 | < 0.01 µM | 10.9 | 0.0206 | 5.95 | < 0.01 | 7.9 | 2.71 | 0.0395 µM
Clc1ccc(/C=C/c2nc(Cl)c(-c3ccc(Cl)cc3)c(Cl)n2)cc1 |  | > 100 |  | > 100 |  | > 100 |  | > 100 |  | > 100 |  |  |  | > 100 | > 100 | 
C=C(C)C(=O)O[C@H]1CC2=CC(CC(C)=C[C@H]3OC(=O)C(=C)C13)OC2=O (some centres not stated) |  | 68.5 |  | 51.4 |  | 40.7 |  | 36 |  | 24.2 |  | > 100 |  | 30.8 |  | 
COC1OC(C(C)O)C2OC(C)(C)OC12 (configuration not stated) |  | > 100 |  | > 100 |  | > 100 |  | > 100 |  | > 100 |  |  |  | > 100 |  | 
COc1ccc(C=C2C(=O)NC(=O)NC2=O)cc1OCc1ccccc1 | 29.2 µg/mL |  | 47.6 µg/mL |  |  |  | 50.7 µg/mL |  | 40.5 µg/mL |  |  |  |  |  |  | 12 µg/mL
NS(=O)(=O)c1ccc(N2N=C(c3cccs3)CC2c2ccccc2O)cc1 (configuration not stated) | 1.16 µM | 4.48 | 1.2 µM | 4.78 | 1.27 | 16.9 | 1.16 µM | 4.83 | 1.15 µM | 3.96 | 1.33 | 5.12 | 0.903 | 2.33 | 2.2 | 0.733 µM
CCc1c2c(nc3ccc(OCc4ccc(B5OC(C)(C)C(C)(C)O5)cc4)cc13)-c1cc3c(c(=O)n1C2)COC(=O)[C@]3(O)CC | < 0.01 µM | > 100 | < 0.01 µM | > 100 | < 0.01 | > 100 | 0.0258 µM | > 100 | 0.0169 µM | > 100 | 0.185 | > 100 | 0.0223 | > 49.8 | 0.185 | 0.027 µM
CNc1ncc2cc(Oc3ccc(F)cc3F)c(=O)n(C)c2n1 | > 25 µM | > 25 | > 25 µM | > 25 | > 25 | > 25 | > 25 µM | > 25 | > 25 µM | > 25 | > 25 | > 25 | > 25 | > 25 | > 25 | > 19.3 µM
Cc1cn(Cc2ccccc2CCl)c(=O)n(Cc2ccccc2CCl)c1=O | 2.32 µM | 5.99 | 2.65 µM | 6.97 |  |  | 2.14 µM | 6.03 | 1.55 µM | 3.18 | 1.5 | 2.95 | 1.93 | 3.68 | 3.22 | 1.57 µM
CN(C)c1ncnc2c1ccn2C1OC(CO)C(O)C1O (configuration not stated) | 3.63 µM | > 100 | 2.62 µM | > 100 | 0.278 | 1.95 | 2.55 µM | > 100 | 2.97 µM | > 100 | 1.89 | 18.1 | 0.386 | 2.94 | > 100 | 18.1 µM
Cc1ccc([N+](=O)[O-])c2c(NCCC[N+](C)(C)[O-])ccnc12 |  | > 100 |  | > 100 |  | > 100 |  | > 100 |  | > 100 |  | 58.9 |  | > 100 | > 100 | 
COC(=O)Nc1nc2ccc(S(=O)(=O)c3ccc(NC(=O)Nc4cc(C(F)(F)F)ccc4F)cc3)cc2[nH]1 | > 25 µM | > 25 | > 25 µM | > 25 | > 25 | > 25 | > 25 µM | > 25 | > 25 µM | > 25 | > 25 | > 25 | > 25 | > 25 | > 25 | > 25 µM
Oc1ccc(O)c2c1C1(Cl)C(Cl)=C(Cl)C2(Cl)C1(Cl)Cl | 3.31 µM | 15.5 | 5.29 µM | 22.7 | 2.87 | 19 | 4.89 µM | 16.7 | 3.07 µM | 12.8 | 8.7 | 21.3 | 3.45 | 12.9 | 11.2 | 3.31 µM
COC1C(O)C(C)OC(O[C@@H]2C[C@H]3CC[C@@H]4[C@H](CC[C@]5(C)[C@@H](C6=CC(=O)OC6)CC[C@]45O)[C@@]3(C)[C@H](O)C2)C1O (some centres not stated) |  | 0.171 |  | 0.0591 |  | < 0.0273 |  |  |  | 0.0994 |  | 2.69 |  | 0.0812 | 0.0363 | 
COc1ccc2c(c1OC)C(=O)O[C@@H]2[C@H]1c2c(c(Br)c3c(c2OC)OCO3)CCN1C | 18 µM | > 100 | > 100 µM | > 100 | 4.09 | > 100 | 5.37 µM | > 100 | 4.69 µM | > 100 |  |  | > 100 | > 100 | > 100 | 20.3 µM
CC1=NN(c2ccccc2)C(=O)C1N=Nc1ccc(S(N)(=O)=O)cc1 (configuration not stated) |  | > 100 |  | > 100 |  | > 100 |  | > 100 |  | > 100 |  |  |  | > 100 | > 100 | 
COc1cc2c(cc1OCCCCCn1c3ccccc3c3ccccc31)N=C[C@@H]1CCCN1C2=O | 1.91 µM | 3.74 | 1.94 µM | 4.16 | 2.15 | 6.11 |  |  | 1.65 µM | 3.33 | 1.71 | 3.18 | 2.23 | 4.67 | 16.4 | 4.34 µM
